Experimental data published in US20250171495A1, “MUTLI-TARGETED SERINE PROTEASE INHIBITORS FOR TREATMENT OF CANCER AND VIRAL INFECTION” (Washington University, priority 2023, published 2025).
pIC50: −log10 of the molar value. Where two headings read alike, the source gives them in different places.

What was measured:
Format in all cases: biochemical
HGFA = target: T1, HGFA (Homo sapiens, UniProt Q04756); assay: Fluorogenic kinetic enzyme inhibitor assay, HGFA
T1 construct: purchased R&D Systems 1514-SE-010
T1 sequence (Q04756 408-655 limits assumed): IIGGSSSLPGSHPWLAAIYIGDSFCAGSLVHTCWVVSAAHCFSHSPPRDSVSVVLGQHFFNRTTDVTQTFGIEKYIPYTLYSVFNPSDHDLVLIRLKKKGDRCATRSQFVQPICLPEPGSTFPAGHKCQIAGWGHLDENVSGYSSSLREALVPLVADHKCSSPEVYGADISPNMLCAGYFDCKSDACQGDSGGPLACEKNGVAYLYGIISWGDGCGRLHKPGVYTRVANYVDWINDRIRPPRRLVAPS
T1 sequence (Q04756 373-407 partner limits assumed): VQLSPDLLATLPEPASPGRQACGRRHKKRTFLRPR

TMPRSS2 = TMPRSS2 (Homo sapiens, UniProt O15393); assay: Fluorogenic kinetic enzyme inhibitor assay, TMPRSS2; parameters: purchased Cusabio Technology CSB-YP023924HU; details: read-out: TMPRSS2 IC50
Factor Xa = target: T2, Factor Xa (Homo sapiens, UniProt P00742); assay: Fluorogenic assay, Factor Xa
T2 construct: TMPRSS2; Matriptase; Hepsin; HGFA; Thrombin; Factor Xa

matriptase = target: T3, matriptase (Homo sapiens, UniProt Q9Y5Y6); assay: Fluorogenic kinetic enzyme inhibitor assay, matriptase
T3 construct: purchased R&D Systems 3946-SEB-010
T3 sequence (Q9Y5Y6 615-855 limits assumed): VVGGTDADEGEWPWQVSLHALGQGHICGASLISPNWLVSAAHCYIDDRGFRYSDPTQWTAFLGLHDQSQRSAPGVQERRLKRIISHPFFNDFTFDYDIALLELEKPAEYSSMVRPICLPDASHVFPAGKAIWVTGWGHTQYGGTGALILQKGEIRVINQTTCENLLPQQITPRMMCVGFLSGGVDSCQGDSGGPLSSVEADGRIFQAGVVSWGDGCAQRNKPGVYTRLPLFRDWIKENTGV

Thrombin = Thrombin (Homo sapiens, UniProt P00734); assay: Fluorogenic assay, thrombin
hepsin = target: T4, hepsin (Homo sapiens, UniProt P05981); assay: Fluorogenic kinetic enzyme inhibitor assay, hepsin
T4 construct: purchased R&D Systems 4776-SE-010
T4 sequence (P05981 163-417 limits assumed): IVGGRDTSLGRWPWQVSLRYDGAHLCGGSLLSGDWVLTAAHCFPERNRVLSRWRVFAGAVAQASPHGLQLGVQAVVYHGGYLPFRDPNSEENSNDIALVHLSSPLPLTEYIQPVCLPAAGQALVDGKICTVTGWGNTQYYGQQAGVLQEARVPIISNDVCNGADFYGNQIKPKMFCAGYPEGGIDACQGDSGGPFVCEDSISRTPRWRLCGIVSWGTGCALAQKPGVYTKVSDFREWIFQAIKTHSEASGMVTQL
T4 sequence (P05981 1-162 partner limits assumed): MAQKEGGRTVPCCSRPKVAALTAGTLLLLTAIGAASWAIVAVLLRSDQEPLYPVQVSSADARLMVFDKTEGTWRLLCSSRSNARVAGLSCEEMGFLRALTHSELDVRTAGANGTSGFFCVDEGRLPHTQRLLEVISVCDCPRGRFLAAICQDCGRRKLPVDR

TMPRSS2, sequence (O15393 106-492 limits assumed): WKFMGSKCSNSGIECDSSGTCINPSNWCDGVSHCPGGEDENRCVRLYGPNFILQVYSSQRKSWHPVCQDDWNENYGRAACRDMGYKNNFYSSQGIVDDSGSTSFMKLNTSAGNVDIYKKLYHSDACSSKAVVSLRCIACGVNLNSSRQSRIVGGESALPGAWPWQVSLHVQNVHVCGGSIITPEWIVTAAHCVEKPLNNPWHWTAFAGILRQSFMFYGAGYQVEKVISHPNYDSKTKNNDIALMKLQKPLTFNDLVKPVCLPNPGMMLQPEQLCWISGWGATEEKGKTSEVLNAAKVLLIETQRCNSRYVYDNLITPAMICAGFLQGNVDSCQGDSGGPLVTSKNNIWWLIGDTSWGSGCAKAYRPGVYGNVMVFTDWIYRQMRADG
T2 sequence (P00742 235-488 limits assumed): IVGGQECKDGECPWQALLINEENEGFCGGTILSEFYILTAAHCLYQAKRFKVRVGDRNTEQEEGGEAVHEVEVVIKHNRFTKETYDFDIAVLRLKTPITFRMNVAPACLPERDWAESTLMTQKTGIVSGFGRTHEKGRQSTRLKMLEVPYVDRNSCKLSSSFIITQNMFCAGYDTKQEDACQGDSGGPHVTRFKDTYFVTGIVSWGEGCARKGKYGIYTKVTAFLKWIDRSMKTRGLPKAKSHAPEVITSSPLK
T2 sequence (P00742 41-179 partner limits assumed): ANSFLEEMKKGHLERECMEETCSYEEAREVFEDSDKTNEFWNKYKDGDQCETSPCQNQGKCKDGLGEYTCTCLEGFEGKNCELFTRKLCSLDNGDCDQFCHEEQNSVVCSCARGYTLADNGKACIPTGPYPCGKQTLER

SMILES	pIC50 (HGFA; read-out: HGFA IC50)	pIC50 (TMPRSS2)	pIC50 (Factor Xa; read-out: Factor Xa IC50)	pIC50 (matriptase; read-out: Matriptase IC50)	pIC50 (Thrombin)	pIC50 (hepsin; read-out: Hepsin IC50)	pIC50 (matriptase)	pIC50 (HGFA)	pIC50 (hepsin)	pIC50 (Factor Xa)
N=C(N)NCCC[C@H](NC(=O)[C@H](Cc1ccccc1)NC(=O)[C@H](CCC(N)=O)NC(=O)Cc1ccccc1)C(=O)c1nc2ccccc2s1 [CA1018, N-[(S)-1-[N-(S)-1-[(1,3-benzothiazol-2-yl)carbonyl]-4-guanidinobutylcarbamoyl]-2-phenylethyl](S)-2-(benzylcarbonylamino) glutaramide]	7.12	9.39	6.67	9.00	< 4.70	9.19	–	–	–	–
N=C(N)NCCC[C@@H](NC(=O)[C@H](Cc1ccccc1)NC(=O)[C@H](CCC(N)=O)NCc1ccccc1)C(=O)c1nc2ccccc2s1 [CA1022-1, N-[(S)-1-[N-(R)-1-[(1,3-benzothiazol-2-yl)carbonyl]-4-guanidinobutylcarbamoyl]-2-phenylethyl](S)-2-benzylaminoglutaramide]	5.89	8.63	6.35	8.06	< 4.70	9.08	–	–	–	–
N=C(N)NCCC[C@H](NC(=O)[C@H](Cc1ccccc1)NC(=O)[C@H](CCC(N)=O)NCc1ccccc1)C(=O)c1nc2ccccc2s1 [CA1022-2, N-[(S)-1-[N-(S)-1-[(1,3-benzothiazol-2-yl)carbonyl]-4-guanidinobutylcarbamoyl]-2-phenylethyl](S)-2-benzylaminoglutaramide]	7.30	9.00	7.40	8.64	< 4.70	9.70	–	–	–	–
N=C(N)NCCC[C@@H](NC(=O)[C@H](Cc1ccccc1)NC(=O)[C@H](CCC(N)=O)NCCc1ccccc1)C(=O)c1nc2ccccc2s1 [CA1033-1, N-[(S)-1-[N-(R)-1-[(1,3-benzothiazol-2-yl)carbonyl]-4-guanidinobutylcarbamoyl]-2-phenylethyl](S)-2-(phenethylamino)glutaramide]	5.54	7.78	4.77	7.11	< 4.70	8.03	–	–	–	–
N=C(N)NCCC[C@H](NC(=O)[C@H](Cc1ccccc1)NC(=O)[C@H](CCC(N)=O)NCCc1ccccc1)C(=O)c1nc2ccccc2s1 [CA1033-2, N-[(S)-1-[N-(S)-1-[(1,3-benzothiazol-2-yl)carbonyl]-4-guanidinobutylcarbamoyl]-2-phenylethyl](S)-2-(phenethylamino)glutaramide]	7.31	9.50	5.97	8.55	4.99	9.52	–	–	–	–
CN(C)[C@@H](CCC(N)=O)C(=O)N[C@@H](Cc1ccccc1)C(=O)N[C@H](CCCNC(=N)N)C(=O)c1nc2ccccc2s1 [CA1041-1, N-[(S)-1-[N-(R)-1-[(1,3-benzothiazol-2-yl)carbonyl]-4-guanidinobutylcarbamoyl]-2-phenylethyl](S)-2-(dimethylamino)glutaramide]	< 4.70	7.73	5.15	6.84	< 4.70	6.91	–	–	–	–
CN(C)[C@@H](CCC(N)=O)C(=O)N[C@@H](Cc1ccccc1)C(=O)N[C@@H](CCCNC(=N)N)C(=O)c1nc2ccccc2s1 [CA1041-2, N-[(S)-1-[N-(S)-1-[(1,3-benzothiazol-2-yl)carbonyl]-4-guanidinobutylcarbamoyl]-2-phenylethyl](S)-2-(dimethylamino)glutaramide]	6.22	9.07	5.48	8.46	< 4.70	8.72	–	–	–	–
N=C(N)NCCC[C@H](NC(=O)[C@H](Cc1ccccc1)NC(=O)[C@H](CCC(N)=O)NC(=O)c1ccccc1)C(=O)c1nc2ccccc2s1 [CA1043]	8.07	10.09	5.80	9.06	< 4.70	9.96	–	–	–	–
N=C(N)NCCC[C@@H](NC(=O)[C@H](Cc1ccccc1)NC(=O)[C@H](CCC(N)=O)N1CCCCC1)C(=O)c1nc2ccccc2s1 [CA1046-1, N-[(S)-1-[N-(R)-1-[(1,3-benzothiazol-2-yl)carbonyl]-4-guanidinobutylcarbamoyl]-2-phenylethyl](S)-2-piperidinoglutaramide]	< 4.70	7.16	4.91	5.75	< 4.70	6.98	–	–	–	–
N=C(N)NCCC[C@H](NC(=O)[C@H](Cc1ccccc1)NC(=O)[C@H](CCC(N)=O)N1CCCCC1)C(=O)c1nc2ccccc2s1 [CA1046-2, N-[(S)-1-[N-(S)-1-[(1,3-benzothiazol-2-yl)carbonyl]-4-guanidinobutylcarbamoyl]-2-phenylethyl](S)-2-piperidinoglutaramide]	6.15	8.08	5.68	7.38	< 4.70	9.43	–	–	–	–
CC(=O)N[C@@H](Cc1cncn1COCc1ccccc1)C(=O)N[C@@H](CCCCNC(=N)N)C(=O)N[C@@H](CCC(C)C)C(=O)N[C@H](CCCNC(=N)N)C(=O)c1nc2ccccc2s1 [JH1143-1, N-[(R)-1-[(1,3-benzothiazol-2-yl)carbonyl]-4-guanidinobutyl](S)-2-[(S)-1-[(S)-2-acetylamino-3-{1-[(benzyloxy)methyl]-5-imidazolyl}propionylamino]-5-guanidinopentylcarbonylamino]-5-methylhexanamide]	6.27	8.12	5.32	–	5.31	8.72	8.52	–	–	–
N=C(N)NCCC[C@H](NC(=O)[C@H](Cc1ccccc1)NC(=O)OCC1c2ccccc2-c2ccccc21)C(=O)c1nc2ccccc2s1 [MF1133, (S)-1-[N-(S)-1-[(1,3-benzothiazol-2-yl)carbonyl]-4-guanidinobutylcarbamoyl]-2-phenylethyl(9H-fluoren-9-yl)methanecarbamate]	5.72	7.71	7.55	5.59	< 4.70	5.57	–	–	–	–
CSCC[C@H](NC(C)=O)C(=O)N[C@@H](CCC(N)=O)C(=O)N[C@@H](Cc1ccccc1)C(=O)N[C@@H](CCCNC(=N)N)C(=O)c1nc2ccccc2s1 [MM3130, N-[(S)-1-[N-(S)-1-[(1,3-benzothiazol-2-yl)carbonyl]-4-guanidinobutylcarbamoyl]-2-phenylethyl](S)-2-[(S)-2-acetylamino-4-(methylthio)butyrylamino] glutaramide]	–	9.85	6.47	–	< 4.70	–	9.26	7.44	9.87	–
CC(=O)N[C@@H](CC(C)C)C(=O)N[C@@H](CCC(N)=O)C(=O)N[C@@H](Cc1ccccc1)C(=O)N[C@@H](CCCNC(=N)N)C(=O)c1nc2ccccc2s1 [MM3131, N-[(S)-1-[N-(S)-1-[(1,3-benzothiazol-2-yl)carbonyl]-4-guanidinobutylcarbamoyl]-2-phenylethyl](S)-2-[(S)-2-acetylamino-4-methylvalerylamino]glutaramide]	–	10.51	–	–	< 4.70	–	8.74	7.01	9.61	6.66
CCC(C)[C@H](NC(C)=O)C(=O)N[C@@H](CCC(N)=O)C(=O)N[C@@H](C)C(=O)N[C@@H](CCCNC(=N)N)C(=O)c1nc2ccccc2s1 (stereo partly drawn) [MM3178, N-[(S)-1-[N-(S)-1-[(1,3-benzothiazol-2-yl)carbonyl]-4-guanidinobutylcarbamoyl]ethyl](S)-2-[(2S)-2-acetylamino-3-methylvalerylamino]glutaramide]	< 4.70	9.64	6.77	–	< 4.70	8.90	10.00	–	–	–
CC(=O)N[C@H]1CCCCn2cc(nn2)C[C@H](C(=O)N[C@H](CCCNC(=N)N)C(=O)c2nc3ccccc3s2)NC(=O)[C@H](CC(C)C)NC1=O [VD4118A, N-[(R)-1-[(1,3-benzothiazol-2-yl)carbonyl]-4-guanidinobutyl]-(6S,9S,12R)-6-acetylamino-9-isobutyl-7,10-dioxo-1,8,11,15,16-pentaazabicyclo[12.2.1]heptadeca-14(17),15-diene-12-carboxamide]	4.81	–	5.71	–	< 4.70	6.93	7.71	–	–	–
CC(=O)N[C@H]1Cc2ccc(cc2)OCCCC[C@@H](C(=O)N[C@H](CCCNC(=N)N)C(=O)c2nc3ccccc3s2)NC(=O)[C@@H](Cc2c[nH]c3ccccc23)NC1=O [VD4162A, N-[(R)-1-[(1,3-benzothiazol-2-yl)carbonyl]-4-guanidinobutyl]-(7S,10R,13S)-13-acetylamino-10-[(3-indolyl)methyl]-9,12-dioxo-2-oxa-8,11-diazabicyclo[13.2.2]nonadeca-1(17),15,18-triene-7-carboxamide]	7.28	–	5.13	–	< 4.70	8.52	7.51	–	–	–
